# Data reported in a melting point compilation (Tetko et al.; mined from patent text by program, amines drawn as free bases though some values may be those of a salt).
row,Compound,melting point
1,C=Cc1c(C)oc(-c2ccc(S(C)(=O)=O)cc2)c(Oc2ccc(F)cc2F)c1=O,184 °C
2,CC(C)n1nc(-c2cnc(N)nc2-c2ccco2)ccc1=O,215 °C
3,Cc1nnc(Br)n1-c1ccc(Cl)cc1C(=O)c1ccccc1,198 to 199 °C
4,CCCc1nc2c(N)nc3c(c2n1CCCCC(=O)N1CCOCC1)CCCC3,158 to 160 °C
5,O=C1CCCN1c1c([N+](=O)[O-])cc(C(F)(F)F)c(Cl)c1[N+](=O)[O-],121 to 122 °C
6,O=C1NC(=O)C(Cc2ccc(OC3=C(Cl)C(=O)c4ccccc4C3=O)cc2)S1 (centres undefined),250 to 252 °C
7,N#Cc1ccc(CCCCC(=O)O)cc1,101 to 102 °C
8,COC(=O)c1cnn(-c2ccc(Cl)cc2Cl)c1N,143 to 145 °C
9,COc1ccc(-c2nc(CN3CCOCC3)nc3cc(OC)c(OC)cc23)cc1OC,148 to 150 °C
10,CC1COc2c(N3CCNC(c4ccccc4)C3)c(F)cc3c(=O)c(C(=O)O)cn1c23 (centres undefined),238 to 244 °C
11,CCn1cc(C)c2cnc(NC(=O)c3ccc(C(C)(C)O)cc3)cc21,198 to 200 °C
12,Cc1noc(NS(=O)(=O)c2ccccc2-c2ccc(CC(C)C)cc2CO)c1C,60 to 67 °C
13,O=C1C(Cc2ccccc2Cl)c2cc([N+](=O)[O-])ccc2ON1CCO (centres undefined),108 to 110 °C
14,CC(=O)OCC1OC(n2c3ccccc3c3c4c(c5c6cccnc6[nH]c5c32)C(=O)N(CO)C4=O)C(OC(C)=O)C(OC(C)=O)C1OC(C)=O (centres undefined),264 to 266 °C
15,O=S(CCCCCOc1ccc(C2=C(c3ccccc3)CCCc3cc(O)ccc32)cc1)Cc1ccccc1 (centres undefined),196 °C
16,CCOC(=O)C(NC(=O)c1ccccc1Cl)(c1nc(OC)cc(OC)n1)C(C)C (centres undefined),94 to 95 °C
17,OC(CBr)C(O)C(O)C(O)CBr (centres undefined),183 to 185 °C
18,COC(=O)C1(c2c(F)cccc2F)Nc2ccccc2N1Cc1c(F)cccc1F (centres undefined),185 to 186 °C
19,COc1ccc2c(c1)c1cc(OC)ccc1c1[nH]c(S(=O)(=O)C(F)(F)F)nc21,228 to 231 °C
20,CCC1=CN2CC(c3ccc(Br)cc3)N=C2S1 (centres undefined),74.8 °C
21,CN(C)C1CCC(Nc2ncnc3sc4c(c23)CCC4)CC1 (centres undefined),97 to 98 °C
22,C=CCNC1=NS(=O)(=O)c2sc(Cl)cc2N1,217 to 221 °C
23,COc1ccc2c(c1)c(CNc1ccccc1Oc1ccc(Cl)cc1)cn2C(C)=O,140 to 141 °C
24,CS(=O)(=O)c1ccc(C(=O)Nc2ccc(-n3nc(C4CC4)cc3C3CC3)cc2)cc1,171 to 176 °C
25,"C=CCN1CCc2cc(OC)c(O)c3c2C1Cc1cc(O)c(OC)cc1-3 (single isomer, unassigned; (+))",161 to 171 °C

row,Compound,melting point
1,Cc1c(NC(=O)c2ccc(OCC3CC3)cc2)ccc2cc(CNCC3CCOCC3)[nH]c12,167 to 168 °C
2,CCc1[nH]n(C2CCCC2)c2nc(-c3ccc(-n4ccnc4)cc3)nc(=O)c1-2,> 300 °C
3,CCC(C)c1cc(Cl)cc(Cl)c1OCC(=O)NCCCCNC(=O)OC(C)(C)C (centres undefined),50 °C
4,COc1cccc(OCCCSCCC(=O)O)c1,53 to 55 °C
5,Nc1ncc(-c2ccccc2-c2ncccn2)c(N)n1,95.1 °C
6,CC1(C)CC(=O)C2=C(C1)NC1=C(C(=O)CC(C)(C)C1)C2c1ccc(C(F)(F)F)c(F)c1,296 to 300 °C
7,COC1(c2cccc(OCc3ccc(-n4cnc(-c5ccccc5)c4)cc3)c2)CCOCC1,98 to 100 °C
8,Cc1cn2c(=O)c(CCN3CCC(C(=O)c4ccc(F)cc4)CC3)cnc2n1Cc1ccccc1,157 °C
9,Cc1ccc(C(=O)O)c(F)c1C1=NC(C)(C(C)C)C(=O)N1 (centres undefined),164 to 170 °C
10,CCC1(C(F)(F)F)C(=O)NC(=O)NC1=O,208 to 209 °C
11,CC(C)(C)[N+]([O-])=Cc1c[nH]c(-c2ccccc2)n1,209 to 210 °C
12,O[C@@H](COc1cccc(-c2noc3ccsc23)c1)CN1CCN(c2ccccc2Cl)CC1,83 to 86 °C
13,Cc1ccc(S(=O)(=O)OC(C)COc2c([N+](=O)[O-])ccc(F)c2F)cc1 (centres undefined),67 to 69 °C
14,CCCCCCCCCCCCCCCCCCOc1cc(SC)cc(C(=O)O)c1,64 to 66 °C
15,COc1ccc(C(O)CN2CCN(c3cccccc3=O)CC2)cc1OC (centres undefined),122 to 124 °C
16,CCc1cc(C(=O)O)ccc1O,134 to 136 °C
17,CCOC(=O)c1cc(NC(=O)C(Cc2ccc(Cl)c(Cl)c2)NC(=O)OC(C)(C)C)c[nH]1 (centres undefined),175 to 185 °C
18,CCc1nc(OC)c(NC(=O)N2CCN(c3cc(F)cc(F)c3)CC2)cc1C(=O)Nc1cc(CO)cc(Nc2c3ccccc3nc3ccccc23)c1,184 to 186 °C
19,NS(=O)(=O)c1ccc(N2CN(c3ccccc3)CC2=O)c(Cl)c1,204 °C
20,O=c1cc2sc3ccccc3nc-2c2ccccc12,176 to 177 °C
21,CCCCC[C@@H](CNC(=O)Nc1c(OC(C)C)c(C)nn1C(C)(C)C)c1cccc2c1OCO2,98.5 to 99 °C
22,Clc1ccc(-c2nnco2)cc1,129 °C
23,C#CCn1c(C(F)(F)F)c(CO)oc1=O,64 °C
24,Cn1nnnc1-c1cn(C)c2cc(N3CCOCC3)ccc2c1=O,235 to 238 °C
25,COC(=O)c1cccc([N+](=O)[O-])c1Nc1cccc2[nH]ncc12,152 to 154 °C

row,Compound,melting point
1,CCCCc1nc(Cl)c(C(=O)O)n1Cc1ccc(-c2ccccc2I)cc1,175 °C
2,COc1cccc2c1OC(C(=O)N1CCC(NC(=O)Nc3ccccc3)CC1)CC2 (centres undefined),215 to 216 °C
3,Nc1cccc2c1C(=O)N(c1ccc(OC(F)(F)F)cc1)C2=O,161 to 162 °C
4,CC1(C)C=Cc2cc(C#N)c([N+](=O)[O-])cc2O1,154 to 155 °C
5,CCS(=O)(=O)CCC(=O)NNC(=O)N1Cc2ccccc2Oc2ccc(N)cc21,172 to 179 °C
6,CC1CCc2cc([N+](=O)[O-])cnc2C1 (centres undefined),55 to 56 °C
7,CCOC(=O)C1=C(C)NC(=O)N(C(=O)OC(C)C)C1c1cccc(Cl)c1Cl (centres undefined),139 to 140 °C
8,COc1cc(COc2ncccc2CC#N)ccc1OCc1nc(-c2ccccc2)oc1C,108 to 109 °C
9,O=C(Nc1cccc(C(F)(F)F)c1)c1coc2cc(Oc3cc(CO)ncn3)ccc12,181 to 182 °C
10,CC(C)(S)CNC(=O)CCCC(=O)O,101 to 104 °C
11,Nc1cccc(NC(=O)C(=O)C(=O)O)c1,246 °C
12,O=C(O)c1cccc(-c2cc([N+](=O)[O-])ccc2F)c1,272 to 274 °C
13,CC(C)NC(=O)C(F)(F)C(F)(F)F,54 to 56 °C
14,COc1cccc(Nc2ccnc(Nc3ccc(OC)c(OC)c3)n2)c1,135 to 138 °C
15,Cc1ncc2n1-c1ccc(Cl)cc1C(c1ccccc1F)N(N=O)C2 (centres undefined),139 to 145 °C
16,CCCCC(Cc1ccc(OCCNC(=O)c2ccc(-c3ccc(CN(C)C)cc3)cc2)cc1)C(=O)O (centres undefined),125 to 127 °C
17,O=C(O)c1ccc(N(CC2CC2)c2cc3c4c(c2)CCCC4CCC3)cc1,214 to 216 °C
18,C=CC1=C(C)c2cc3[nH]c(cc4nc(cc5[nH]c(cc1n2)c(C)c5CCC(=O)OCCN(C)C)C(CCC(=O)OCCN(C)C)=C4C)c(C)c3C=C,187 to 191 °C
19,C/C(=C(\C#N)C(=S)/N=C/N(C)C)N1CCCN(c2ccc(C)c(F)c2)CC1,254 to 256 °C
20,COc1ccc(Cn2c(=O)oc(=O)c3cccnc32)cc1,160 °C
21,CC[C@@H]1N(c2ccc(C#N)c(Cl)c2C)C(=O)C[C@@]1(O)C1CC1,177 to 179 °C
22,CC(C)(C)OC(=O)N1CCC(c2ccc(N3C[C@H](CNC(=O)C(Cl)Cl)OC3=O)cc2F)CC1,168 to 170 °C
23,CC1=C(c2ccc(C(=O)O)cc2)CCCC1,176 to 178 °C
24,CCCCCS(=O)(=O)c1cccc(-c2nc(=O)c3ccccc3s2)n1,160 to 161 °C
25,Cc1nnc(-c2nsc3ccc([N+](=O)[O-])cc23)s1,239 to 240 °C

row,Compound,melting point
1,CNc1nc(C)c(C(=O)c2ccc(Cl)c([N+](=O)[O-])c2)s1,220 to 232 °C
2,O=C1CC(Nc2ccc([N+](=O)[O-])cc2)=NN1c1c(Cl)cc(Cl)cc1Cl,295 to 298 °C
3,COC(=O)c1ccccc1CS(N)(=O)=O,79 to 81 °C
4,COC(=O)CC1COc2ccc(N)cc2C1 (centres undefined),104 to 106 °C
5,NC(=O)c1ccc(N2CCN(c3ccncc3)CC2)cc1,327 to 330 °C
6,Cn1nnnc1CC(c1ccccc1)c1ccccc1,147 to 148 °C
7,CSC(=NC(=O)c1ccccc1)N1CC=C(c2cccc(C(F)(F)F)c2)n2ncc(C(N)=O)c21,172 to 175 °C
8,O=C1CC2(CCCCC2)CC(=O)N1c1ccncc1,213 to 215 °C
9,CC(Cn1c(=S)[nH]c2ccccc2c1=O)N1CCC(C(=O)c2ccc(F)cc2)CC1 (centres undefined),161 °C
10,O=c1[nH]nc(CO)c2ccccc12,199 to 201 °C
11,CCSc1ncc(S(N)(=O)=O)s1,95 to 96 °C
12,CC(C)(C)OC(=O)N(O)C(=O)CCN,85 to 87 °C
13,COC(=O)N1OCC(=Cc2cc(C(C)(C)C)c(O)c(C(C)(C)C)c2)C1=O,191 to 192 °C
14,O=C(O)CN1CCN(CCNC(=O)c2cc3ccc(C4OC(CO)C(O)C(O)C4O)cc3oc2=O)CC1 (centres undefined),140 to 143 °C
15,FC(F)(F)Sc1ccc(C=Cc2nc(COc3ccc(CCCCn4ccnn4)cc3)co2)cc1,144 to 145 °C
16,O=c1[nH]c(=O)n(C2OC(CO)C(O)C2F)cc1I (centres undefined),216 to 217 °C
17,CN1CCN(c2cccc3c2C[C@H](NC(=O)c2ccc(-c4ccccc4)cc2)CC3)CC1,232 to 233 °C
18,NS(=O)(=O)c1cc2ccc(OCC3CO3)cc2s1 (centres undefined),148 to 149 °C
19,O=C(c1ccc([N+](=O)[O-])cc1)c1c(Cl)cc(O)cc1Cl,118 to 120 °C
20,NS(=O)(=O)CCC(O)COCc1ccccc1 (centres undefined),94 to 98 °C
21,O=c1oc2cc(O)c(O)c([N+](=O)[O-])c2cc1-c1nnn[nH]1,> 315 °C
22,O=C(c1ccc(OCCn2ccnc2)cc1)N1CCOCC1,109 to 111 °C
23,CC(=O)NCc1ccc(CN2CCN(c3ccc(N)cc3)CC2)cc1,198 to 200 °C
24,C=CCN(CC=C)c1nc(NC(=O)COC)n2oc(=O)nc2n1,135 to 136 °C
